Data on 18 compounds can be found in patent US9657015B2, “Substituted bicyclic dihydropyrimidinones and their use as inhibitors of neutrophil elastase activity” (Boehringer Ingelheim International GmbH, priority 2014, dated 2017).

SMILES strings stand for the structures. Values after ≈ are worked out from the molar mass of the structure shown. Bounds are passed on as bounds.

The target in data set [1] is Human neutrophil elastase (Homo sapiens (Human), UniProt P08246). The data set can be described thus: Human Neutrophil Elastase Assay. The settings on record: substrate MeOSuc-Ala-Ala-Pro-Val-AMC 250 μM, pH 7.5, room temperature. Format: biochemical.
Procedure: The following buffers were used: Compound buffer: 100 mM Tris, 500 mM NaCl, adjusted to pH 7.5; Assay buffer: 100 mM Tris, 500 mM NaCl, adjusted to pH 7.5, containing 0.01% BSA.
Assay conditions: Test compounds were prediluted in DMSO and subsequently in compound buffer (5% DMSO final). […] After inactivation of the enzyme, fluorescence intensities were measured at 380 nm excitation and 460 nm emission wavelengths.
Each plate contains wells with a high value control (DMSO+enzyme+substrate) and wells with a low value control (DMSO+inactivated enzyme+substrate). IC50 values were estimated using a sigmoidal concentration response curve with variable slope. Means of low values were taken as 0%, means of high values as 100%.
The target in data set [2] is neutrophil elastase in human plasma (Homo sapiens (Human), UniProt P08246). The data set can be described thus: Neutrophil elastase inhibitory activity in human plasma. The class given is biochemical. The settings on record: human plasma assay (zymosan-stimulated blood plasma), substrate 250 μM, pH 7.5.
Procedure: Assay for the Determination of Neutrophil Elastase Inhibitory Activity in Human Plasma
Citrated blood from human healthy donors is mixed with zymosan suspension and incubated at room temperature. This leads to the stimulation of neutrophils and the release of neutrophil elastase into the plasma. The stimulated blood is centrifuged to generate the neutrophil elastase enriched plasma.
Preparation of Zymosan Working Solution:
Various concentrations of the neutrophil elastase inhibitor are incubated with plasma. […] A dose response curve is generated to calculate the EC50 of the inhibitor.
The nature of data set [3]: Drug transport across human Caco-2 cells. The class given is in vitro ADME. The settings on record: human, Caco-2 monolayers, pH 7.2, 37° C.; for Papp A→B at 10 µM: apical-to-basal, read-out: PEAB; for Papp B→A at 10 µM: basal-to-apical, read-out: PEBA. The source says: Assay for Determination of Drug Transport Across Human Caco-2 Cells
The assay provides information on the potential of a compound to pass the cell membrane, on the extent of oral absorption as well as on whether the compound is actively transported by uptake and/or efflux transporters. For the measurement of permeability across polarized, confluent human cancer colon carcinoma cells 2 (Caco-2) cell monolayers grown on permeable filter supports are used as the in vitro absorption model.
Apparent permeability coefficients (PE) of the compounds across the Caco-2 monolayers are measured (pH 7.2, 37° C.) in apical-to-basal (AB) (absorptive) and basal-to-apical (BA) (secretory) transport direction. AB permeability (PEAB) represents drug absorption from the intestine into the blood and BA permeability (PEBA) drug secretion from the blood back into the intestine via both passive permeability as well as active transport mechanisms mediated by efflux and uptake transporters that are expressed on the Caco-2 cells. The compounds are assigned to permeability/absorption classes by comparison of the AB permeabilities with the AB permeabilities of reference compounds with known in vitro permeability and oral absorption in the human. Identical or similar permeabilities in both transport directions indicate passive permeation, vectorial permeability points to additional active transport mechanisms. […] Active transport is concentration-dependently saturable.
Caco-2 cells (1-2*10^5 cells/cm^2 area) are seeded on filter inserts (Costar transwell polycarbonate or PET filters, 0.4 μm pore size) and cultured (DMEM) for 10 to 25 days. Compounds are dissolved in appropriate solvent (like DMSO, 1-20 mM stock solutions). Stock solutions are diluted with HTP-4 buffer (128.13 mM NaCl, 5.36 mM KCl, 1 mM MgSO4, 1.8 mM CaCl2, 4.17 mM NaHCO3, 1.19 mM Na2HPO4×7H2O, 0.41 mM NaH2PO4×H2O, 15 mM HEPES, 20 mM glucose, pH 7.2) to prepare the transport solutions (typically 10 μM compound, final DMSO<=0.5%). The transport solution (TL) is applied to the apical or basolateral donor side for measuring A-B or B-A permeability (3 filter replicates), respectively. The receiver side contains HTP-4 buffer supplemented with 2% BSA. Samples are collected at the start and end of experiment from the donor and at various time intervals for up to 2 hours also from the receiver side for concentration measurement by LC-MS/MS or scintillation counting. Sampled receiver volumes are replaced with fresh receiver solution.
The apparent permeability coefficients (PEAB and PEBA) of selected compounds in the Caco-2 drug transport assay described above are listed in Table 9.
On the technique in general: Caco-2 cells form a polarised layer with tight junctions and transporters.

A short description of data set [4]: Aqueous solubility (High Throughput Method). Format: physicochemical. The settings on record: McIlvaine buffer pH 6.8 with 2.5% DMSO, aqueous buffer, kinetic from dmso stock; McIlvaine buffer pH 6.8, 2.5% DMSO, 24 h shaking. The method, then: Assay for Determination of Aqueous Solubility (“High Throughput Method”)
Starting from a 10 mM DMSO stock solution, aliquots are diluted with acetonitrile/water (1/1) and McIlvaine buffer pH 6.8, respectively. After 24 h of shaking, the solutions or suspensions are filtered and analyzed by LC-UV. The amount dissolved in buffer is compared to the amount dissolved in the acetonitrile/water (1/1) solution. Solubility is measured from 0.001 to 0.125 mg/ml at a DMSO concentration of 2.5%. If more than 90% of the compound is dissolved in buffer, the value is marked with “>”.

Data set [5] can be described thus: Metabolic stability with human liver microsomes. The settings on record: pH 7.6; pooled human liver microsomes, 37° C., 1 μM test compound, 1 mg/ml microsomal protein, NADPH; read-out: t1/2 INVITRO. The class given is in vitro ADME. For orientation: Liver microsomes are a subcellular fraction often used to study metabolism.

Human neutrophil elastase, sequence (P08246 30-247): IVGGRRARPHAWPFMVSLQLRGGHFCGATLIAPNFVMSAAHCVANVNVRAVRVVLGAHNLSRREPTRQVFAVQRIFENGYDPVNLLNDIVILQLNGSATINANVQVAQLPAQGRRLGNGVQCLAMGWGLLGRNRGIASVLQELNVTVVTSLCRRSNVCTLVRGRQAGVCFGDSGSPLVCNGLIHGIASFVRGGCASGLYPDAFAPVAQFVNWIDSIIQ
neutrophil elastase in human plasma, sequence (P08246 30-247): as above

Take `CC1(C)CC2=C(C(=O)N1)C(c1ccc(C#N)cc1)N(CC(=O)O)C(=O)N2c1cccc(C(F)(F)F)c1` (stereo not drawn) [Example 13, 2-(4-(4-cyanophenyl)-7,7-dimethyl-2,5-dioxo-1-(3-(trifluoromethyl)phenyl)-1,2,5,6,7,8-hexahydropyrido[4,3-d]pyrimidin-3(4H)-yl)acetic acid]: the figures for the IC50 in data set [1] and in data set [2] were 4.3 nM and 2.2 nM, respectively.

With `CN1CCC2=C(C1=O)C(c1ccc(C#N)cc1)N(CC(N)=O)C(=O)N2c1cccc(C(F)(F)F)c1` (stereo not drawn) [Example 14, 2-(4-(4-Cyanophenyl)-6-methyl-2,5-dioxo-1-(3-(trifluoromethyl)phenyl)-1,2,5,6,7,8-hexahydropyrido[4,3-d]pyrimidin-3(4H)-yl)acetamide], the IC50 – broadly, the concentration that gives 50% inhibition – came to 3 nM in data set [1] and 14 nM in data set [2].

`CNC(=O)CN1C(=O)N(c2cccc(C(F)(F)F)c2)C2=C(C(=O)N(C)CC2)C1c1ccc(C#N)cc1` (stereo not drawn) [Example 15, 2-(4-(4-Cyanophenyl)-6-methyl-2,5-dioxo-1-(3-(trifluoromethyl)phenyl)-1,2,5,6,7,8-hexahydropyrido[4,3-d]pyrimidin-3(4H)-yl)-N-methylacetamide]: the IC50 came to 3.2 nM in data set [1] and 7.8 nM in data set [2].

`CN(C)C(=O)CN1C(=O)N(c2cccc(C(F)(F)F)c2)C2=C(C(=O)N(C)CC2)C1c1ccc(C#N)cc1` (stereo not drawn) [Example 15.1]: the figures for the IC50 in data set [1] and in data set [2] were less than 1 nM and 2.6 nM, respectively.

Consider `CNC(=O)N1C(=O)N(c2cccc(C(F)(F)F)c2)C2=C(C(=O)NCC2)C1c1ccc(C#N)cc1` (stereo not drawn) [Example 16, 4-(4-Cyanophenyl)-N-methyl-2,5-dioxo-1-(3-(trifluoromethyl)phenyl)-1,2,5,6,7,8-hexahydropyrido[4,3-d]pyrimidine-3(4H)-carboxamide], for which the IC50 in data set [1] is less than 1 nM; in data set [2], 2.4 nM.

For `N#Cc1ccc(C2C3=C(CCNC3=O)N(c3cccc(C(F)(F)F)c3)C(=O)N2C(=O)NCCO)cc1` (stereo not drawn) [Example 17, 4-(4-Cyanophenyl)-N-(2-hydroxyethyl)-2,5-dioxo-1-[3-(trifluoromethyl)phenyl]-1H,2H,3H,4H,5H,6H,7H,8H-pyrido[4,3-d]pyrimidine-3-carboxamide], the IC50 in data set [1] and in data set [2] was less than 1 nM throughout.

In the case of `N#Cc1ccc(C2NC(=O)N(c3cccc(C(F)(F)F)c3)C3=C2C(=O)N(C(=O)NCCO)CC3)cc1` (stereo not drawn) [Example 18, 4-(4-Cyanophenyl)-N-(2-hydroxyethyl)-2,5-dioxo-1-[3-(trifluoromethyl)phenyl]-1H,2H,3H,4H,5H,6H,7H,8H-pyrido[4,3-d]pyrimidine-6-carboxamide], the IC50 was 3.8 nM in data set [1] and 6.7 nM in data set [2].

As to `CCNC(=O)N1CCC2=C(C1=O)C(c1ccc(C#N)cc1)NC(=O)N2c1cccc(C(F)(F)F)c1` (stereo not drawn) [Example 19, 4-(4-Cyanophenyl)-N-ethyl-2,5-dioxo-1-[3-(trifluoromethyl)phenyl]-1H,2H,3H,4H,5H,6H,7H,8H-pyrido[4,3-d]pyrimidine-6-carboxamide], the values for the IC50 in data set [1] and in data set [2] were 4.9 nM and 18 nM, respectively.

In the case of `N#Cc1ccc(C2NC(=O)N(c3cccc(C(F)(F)F)c3)C3=C2C(=O)N(C(=O)NCCCO)CC3)cc1` (stereo not drawn) [Example 20, 4-(4-Cyanophenyl)-N-(3-hydroxypropyl)-2,5-dioxo-1-[3-(trifluoromethyl)phenyl]-1H,2H,3H,4H,5H,6H,7H,8H-pyrido[4,3-d]pyrimidine-6-carboxamide], the IC50 in data set [1] came out at 3.7 nM; in data set [2], 6.9 nM.

For `N#Cc1ccc(C2NC(=O)N(c3cccc(C(F)(F)F)c3)C3=C2C(=O)NCC3)c(Br)c1` (stereo not drawn) [Example 21, 3-Bromo-4-{2,5-dioxo-1-[3-(trifluoromethyl)phenyl]-1H,2H,3H,4H,5H,6H,7H,8H-pyrido[4,3-d]pyrimidin-4-yl}benzonitrile], the IC50 in data set [1] and in data set [2] was 1.9 nM throughout.

Consider `CN1C(=O)N(c2cccc(C(F)(F)F)c2)C2=C(C(=O)NCC2)C1c1ccc(C#N)cc1Br` (stereo not drawn) [Example 22, 3-Bromo-4-{3-methyl-2,5-dioxo-1-[3-(trifluoromethyl)phenyl]-1H,2H,3H,4H,5H,6H,7H,8H-pyrido[4,3-d]pyrimidin-4-yl}benzonitrile], for which the results for the IC50 in data set [1] and in data set [2] were less than 1 nM and 2.5 nM, respectively.

For `N#Cc1ccc(C2NC(=O)N(c3cccc(C(F)(F)F)c3)C3=C2C(=O)NCC3)c(-c2cnco2)c1` (stereo not drawn) [Example 23, 4-{2,5-Dioxo-1-[3-(trifluoromethyl)phenyl]-1H,2H,3H,4H,5H,6H,7H,8H-pyrido-[4,3-d]pyrimidin-4-yl}-3-(1,3-oxazol-5-yl)benzonitrile], the IC50 in data set [1] was less than 1 nM; in data set [2], 1.1 nM.

Take `Cn1cc(-c2cc(C#N)ccc2C2NC(=O)N(c3cccc(C(F)(F)F)c3)C3=C2C(=O)NCC3)cn1` (stereo not drawn) [Example 24, 4-{2,5-Dioxo-1-[3-(trifluoromethyl)phenyl]-1H,2H,3H,4H,5H,6H,7H,8H-pyrido-[4,3-d]pyrimidin-4-yl}-3-(1-methyl-1H-pyrazol-4-yl)benzonitrile]: the IC50 was less than 1 nM in data set [1] and 1.4 nM in data set [2].

For the compound `N#Cc1ccc(C2NC(=O)N(c3cccc(C(F)(F)F)c3)C3=C2C(=O)NCC3)c(C(F)(F)F)c1` (stereo not drawn) [Example 27, 4-{2,5-Dioxo-1-[3-(trifluoromethyl)phenyl]-1H,2H,3H,4H,5H,6H,7H,8H-pyrido-[4,3-d]pyrimidin-4-yl}-3-(trifluoromethyl)benzonitrile], the IC50 in data set [1] and in data set [2] was less than 1 nM in each case.

As to `CN1C(=O)N(c2cccc(C(F)(F)F)c2)C2=C(C(=O)NCC2)C1c1ccc(C#N)cc1C(F)(F)F` (stereo not drawn) [Example 28, 4-{3-Methyl-2,5-dioxo-1-[3-(trifluoromethyl)phenyl]-1H,2H,3H,4H,5H,6H,7H,8H-pyrido[4,3-d]pyrimidin-4-yl}-3-(trifluoromethyl)benzonitrile], the IC50 in data set [1] is less than 1 nM; in data set [2], 1.1 nM.

As to `CN1C(=O)N(c2cccc(C(F)(F)F)c2)C2=C(C(=O)NCC2)C1c1ccc(C#N)cc1-c1ccncc1` (stereo not drawn) [Example 33, 4-{3-Methyl-2,5-dioxo-1-[3-(trifluoromethyl)phenyl]-1H,2H,3H,4H,5H,6H,7H,8H-pyrido[4,3-d]pyrimidin-4-yl}-3-(pyridin-4-yl)benzonitrile], the half-inhibitory concentration (IC50) was less than 1 nM in data set [1] and 5.3 nM in data set [2].

Turning to `CN1CCC2=C(C1=O)C(c1ccc(C#N)cc1CO)N(C)C(=O)N2c1cccc(C(F)(F)F)c1` (stereo not drawn) [Example 38, 4-{3,6-Dimethyl-2,5-dioxo-1-[3-(trifluoromethyl)phenyl]-1H,2H,3H,4H,5H,6H,7H,8H-pyrido[4,3-d]pyrimidin-4-yl}-3-(hydroxymethyl)benzonitrile], the IC50 in data set [1] is less than 1 nM. The compound further displayed an IC50 in data set [2] of 1.4 nM. Moreover, in data set [3], the Papp A→B at 10 µM worked out at 24 ×10⁻⁶ cm/s and the Papp B→A at 10 µM amounted to 91 ×10⁻⁶ cm/s. Moreover, the solubility (as a rule, the concentration that dissolves in the medium under given conditions) at 24 h in data set [4] stood at 89 µg/mL (≈ 189 µM).

Take `CN1CCC2=C(C1=O)C(c1ccc(C#N)cc1-c1ccc(=O)n(C)n1)N(C)C(=O)N2c1cccc(C(F)(F)F)c1` (stereo not drawn) [Example 41, 4-{3,6-Dimethyl-2,5-dioxo-1-[3-(trifluoromethyl)phenyl]-1H,2H,3H,4H,5H,6H,7H,8H-pyrido[4,3-d]pyrimidin-4-yl}-3-(1-methyl-6-oxo-1,6-dihydropyridazin-3-yl)-benzonitrile]: the IC50 in data set [2] stood at 1 nM. Besides, the half-life at 1 μM in data set [5] is more than 2.17 h. Moreover, in data set [3], the Papp A→B at 10 µM was 6 ×10⁻⁶ cm/s and the Papp B→A at 10 µM is 91 ×10⁻⁶ cm/s. Moreover, in data set [4], the concentration in solution (solubility at 24 h) was 93 µg/mL (≈ 170 µM).
